From PubChem BioAssay (NCI)
“And” between values parts separate entries of the source, which are not always exact repeats. Equal entries are not always repeated.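 Protocol summary: plate cells (96-well), add compound at 5 concentrations, incubate 48 h, interpolate endpoints linearly. GI50 is the concentration that inhibits growth by half. TGI denotes the concentration required for complete inhibition of growth.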

Tests used:
Assay in all cases: NCI tumour cell line growth inhibition, 48 h
SNB-75 CNS = tested on: SNB-75 CNS
NCI-H522 lung = tested on: NCI-H522 lung
SF-295 CNS = tested on: SF-295 CNS
IGROV1 ovarian = tested on: IGROV1 ovarian
CCRF-CEM leukemia = tested on: CCRF-CEM leukemia
KM12 colon = tested on: KM12 colon
RPMI-8226 leukemia = tested on: RPMI-8226 leukemia
MALME-3M melanoma = tested on: MALME-3M melanoma
A498 renal = tested on: A498 renal
EKVX NSCLC = tested on: EKVX NSCLC

## O=C(O)C1CCCN1Cc1c[nH]c2ccccc12 (centres undefined)
SNB-75 CNS
  TGI: > 100 µM
NCI-H522 lung
  TGI: > 100 µM
SF-295 CNS
  TGI: > 100 µM
IGROV1 ovarian
  TGI: > 100 µM
CCRF-CEM leukemia
  TGI: > 100 µM
KM12 colon
  TGI: > 100 µM
RPMI-8226 leukemia
  TGI: > 100 µM
MALME-3M melanoma
  TGI: > 100 µM
A498 renal
  TGI: > 100 µM
EKVX NSCLC
  TGI: > 100 µM

## O=C1C(c2ccc(Cl)cc2)=[N+]([O-])c2ccccc21
SNB-75 CNS
  TGI: 42.2 µM
NCI-H522 lung
  TGI: 21.9 µM
SF-295 CNS
  TGI: 42.2 µM
IGROV1 ovarian
  TGI: 33.9 µM
CCRF-CEM leukemia
  TGI: 25.5 µM
KM12 colon
  TGI: 29.7 µM
RPMI-8226 leukemia
  TGI: > 100 µM
MALME-3M melanoma
  TGI: 31.8 µM
A498 renal
  TGI: 86.9 µM
EKVX NSCLC
  TGI: 28.9 µM

## O=C1CC2(CCCc3sccc32)C(=O)N1 (centres undefined)
SNB-75 CNS
  TGI: > 100 µM
NCI-H522 lung
  TGI: > 100 µM
SF-295 CNS
  TGI: > 100 µM
IGROV1 ovarian
  TGI: > 100 µM
CCRF-CEM leukemia
  TGI: > 100 µM
KM12 colon
  TGI: > 100 µM
RPMI-8226 leukemia
  TGI: > 100 µM
MALME-3M melanoma
  TGI: > 100 µM
A498 renal
  TGI: > 100 µM
EKVX NSCLC
  TGI: > 100 µM

## COc1cccc(-c2nc(-c3ccc(NS(=O)(=O)c4ccccc4)cc3)[nH]c2-c2ccnc(Br)c2)c1
SNB-75 CNS
  GI50: 1.92 µM
  TGI: > 100 µM
NCI-H522 lung
  GI50: 2.93 µM
  TGI: > 100 µM
SF-295 CNS
  GI50: 1.85 µM
  TGI: 4.35 µM
IGROV1 ovarian
  GI50: 3.84 µM
  TGI: > 100 µM
CCRF-CEM leukemia
  GI50: 3.14 µM
  TGI: > 100 µM
KM12 colon
  GI50: 2.65 µM
  TGI: 8.74 µM
RPMI-8226 leukemia
  GI50: 2.49 µM
  TGI: 8.31 µM
MALME-3M melanoma
  GI50: 1.76 µM
  TGI: 5.22 µM
A498 renal
  GI50: 1.25 µM
  TGI: 5.03 µM
EKVX NSCLC
  GI50: 2.25 µM
  TGI: 9.06 µM

## O=c1oc2ccccc2cc1-c1ccc([N+](=O)[O-])cc1
SNB-75 CNS
  TGI: > 100 µM
NCI-H522 lung
  TGI: > 100 µM
SF-295 CNS
  TGI: > 100 µM
IGROV1 ovarian
  TGI: > 100 µM
CCRF-CEM leukemia
  TGI: > 100 µM
KM12 colon
  TGI: > 100 µM
RPMI-8226 leukemia
  TGI: > 100 µM
MALME-3M melanoma
  TGI: > 100 µM
A498 renal
  TGI: > 100 µM
EKVX NSCLC
  TGI: > 100 µM

## Cc1c(C(=O)CCl)c(=O)n(-c2ccccc2)n1C
SNB-75 CNS
  GI50: 10.9 µM
  TGI: 29.5 µM
NCI-H522 lung
  GI50: 1.46 µM
  TGI: 3.23 µM
SF-295 CNS
  GI50: 10.9 µM
  TGI: 44.3 µM
IGROV1 ovarian
  GI50: 2.19 µM
  TGI: 6.92 µM
CCRF-CEM leukemia
  GI50: 1.01 µM
  TGI: 4.82 µM
KM12 colon
  GI50: 10.4 µM
  TGI: 22.6 µM
RPMI-8226 leukemia
  GI50: 1.07 µM
  TGI: 4.62 µM
MALME-3M melanoma
  GI50: 1.31 µM
  TGI: 6.98 µM
A498 renal
  GI50: 1.24 µM
  TGI: 11 µM
EKVX NSCLC
  GI50: 12.4 µM
  TGI: 29.1 µM

## Cc1c2ncccc2c(C)c2c1[nH]c1ccc(O)cc12
SNB-75 CNS
  GI50: 7.45 µM and 15.2 µM
NCI-H522 lung
  TGI: 19.6 µM
SF-295 CNS
  GI50: 4.53 µM
  TGI: 10.3 µM
IGROV1 ovarian
  GI50: 7.29 µM and 11.6 µM
  TGI: 21.5 µM and 102 µM
CCRF-CEM leukemia
  GI50: 4.65 µM
  TGI: 5.49 µM
KM12 colon
  GI50: 7.19 µM and 7.87 µM
  TGI: 19.9 µM and 23.1 µM
RPMI-8226 leukemia
  GI50: 3.07 µM
  TGI: 8.78 µM and 15.4 µM
MALME-3M melanoma
  GI50: 6.44 µM and 32.7 µM
  TGI: 23.2 µM and 103 µM
A498 renal
  TGI: 26.1 µM
EKVX NSCLC
  GI50: 1.01 µM
  TGI: 17.3 µM and 63 µM

## COc1cc2c3c(n(CCCO)c(=O)c2cc1OC)-c1cc2c(cc1C3=O)OCO2
SNB-75 CNS
  GI50: 16.1 µM
  TGI: > 79.1 µM
NCI-H522 lung
  GI50: > 40.8 µM
  TGI: > 100 µM
SF-295 CNS
  GI50: 1.17 µM
  TGI: > 48.3 µM
IGROV1 ovarian
  GI50: 17.4 µM
  TGI: > 100 µM
CCRF-CEM leukemia
  GI50: 3.54 µM
  TGI: 14.4 µM
KM12 colon
  GI50: 27.7 µM
  TGI: > 100 µM
RPMI-8226 leukemia
  GI50: 11.6 µM
  TGI: > 78 µM
MALME-3M melanoma
  GI50: 21.6 µM
  TGI: > 100 µM
A498 renal
  GI50: 42.8 µM
  TGI: > 73 µM
EKVX NSCLC
  GI50: 54.7 µM
  TGI: > 100 µM

## Clc1ccc(N2COOC3(OOC2)C2CC4CC(C2)CC3C4)cc1
SNB-75 CNS
  GI50: 10.8 µM
  TGI: 55.2 µM
NCI-H522 lung
  GI50: 1.75 µM
  TGI: 6.91 µM
SF-295 CNS
  GI50: 2.99 µM
  TGI: 17.9 µM
IGROV1 ovarian
  GI50: 1.81 µM
  TGI: 6.22 µM
CCRF-CEM leukemia
  GI50: 2.81 µM
KM12 colon
  GI50: 2.02 µM
  TGI: > 100 µM
RPMI-8226 leukemia
  GI50: 4.28 µM
  TGI: 14.7 µM
MALME-3M melanoma
  GI50: 14.4 µM
  TGI: > 100 µM
A498 renal
  GI50: 11.9 µM
  TGI: > 100 µM
EKVX NSCLC
  GI50: 4.17 µM
  TGI: > 100 µM

## COc1cc(-c2cc(C(=O)Nc3nc4ccccc4s3)nc3cc(-c4ccccc4)nn23)cc(OC)c1OC
SNB-75 CNS
  GI50: 2.77 µM
  TGI: 16.1 µM
NCI-H522 lung
  GI50: 1.96 µM
  TGI: 7.82 µM
SF-295 CNS
  GI50: 10.6 µM
  TGI: 32.7 µM
IGROV1 ovarian
  GI50: 56.3 µM
  TGI: > 100 µM
CCRF-CEM leukemia
  GI50: 54.1 µM
  TGI: > 100 µM
KM12 colon
  GI50: 22.6 µM
  TGI: > 100 µM
RPMI-8226 leukemia
  GI50: > 100 µM
  TGI: > 100 µM
MALME-3M melanoma
  GI50: 12.4 µM
  TGI: 56.2 µM
A498 renal
  GI50: 9.29 µM
  TGI: 36.7 µM
EKVX NSCLC
  GI50: 42.9 µM
  TGI: > 100 µM

## Cc1ccc2c(/C=C/C(=O)c3cc(CN4CCOCC4)c(O)c4nc(C)ccc34)cc(CN3CCOCC3)c(O)c2n1
SNB-75 CNS
  GI50: 0.938 µM
  TGI: 16.6 µM
NCI-H522 lung
  GI50: 0.332 µM
  TGI: 2 µM
SF-295 CNS
  GI50: 0.765 µM
  TGI: 10.3 µM
IGROV1 ovarian
  GI50: 0.622 µM
  TGI: 3.6 µM
CCRF-CEM leukemia
  GI50: 0.322 µM
  TGI: 1.12 µM
KM12 colon
  GI50: 0.558 µM
  TGI: 2.24 µM
RPMI-8226 leukemia
  GI50: 0.489 µM
  TGI: 3.86 µM
MALME-3M melanoma
  GI50: 2 µM
  TGI: 10.6 µM
A498 renal
  GI50: 1.8 µM
  TGI: 3.37 µM
EKVX NSCLC
  GI50: 2.1 µM
  TGI: 13.6 µM

## Cc1ccc(C2=[N+]([O-])c3ccccc3C2=O)cc1
SNB-75 CNS
  TGI: > 100 µM
NCI-H522 lung
  TGI: 32.4 µM
SF-295 CNS
  TGI: > 72.5 µM
IGROV1 ovarian
  TGI: 43 µM
CCRF-CEM leukemia
  TGI: 25.9 µM
KM12 colon
  TGI: 50.9 µM
RPMI-8226 leukemia
  TGI: > 72 µM
MALME-3M melanoma
  TGI: 41 µM
A498 renal
  TGI: > 100 µM
EKVX NSCLC
  TGI: 51.7 µM

## CCOC(=O)Oc1c(OC)cc(C(=O)c2ccc(OC)c(OC(=O)CCl)c2OC)cc1OC
SNB-75 CNS
  GI50: 0.528 µM
  TGI: > 100 µM
NCI-H522 lung
  GI50: 0.264 µM
  TGI: 1.31 µM
SF-295 CNS
  GI50: 0.886 µM
  TGI: 33.7 µM
IGROV1 ovarian
  GI50: 3.36 µM
  TGI: > 100 µM
CCRF-CEM leukemia
  GI50: 0.662 µM
  TGI: > 100 µM
KM12 colon
  GI50: 0.543 µM
  TGI: > 100 µM
RPMI-8226 leukemia
  GI50: 1.98 µM
  TGI: > 100 µM
MALME-3M melanoma
  GI50: 0.688 µM
  TGI: 79.9 µM
A498 renal
  GI50: 3 µM
  TGI: 16.6 µM
EKVX NSCLC
  GI50: 3.63 µM
  TGI: > 100 µM

## CC1/C=C/C=C/CC/C=C/C=C/C=C/C=C/C(OC2OC(C)C(O)C(N)C2O)CC2OC(CC(O)C(O)CCC(O)CC(O)CC(O)CC(=O)OC(C)C(C)C1O)CC(O)C2C(=O)O (centres undefined)
SNB-75 CNS
  GI50: 58.2 µg/mL
  TGI: 40.6 µM and 150 µg/mL
NCI-H522 lung
  GI50: 29.8 µg/mL
  TGI: 34.3 µM and 53.7 µg/mL
SF-295 CNS
  GI50: 46.2 µg/mL
  TGI: 45.7 µM and 108 µg/mL
IGROV1 ovarian
  GI50: 23.4 µg/mL
  TGI: 32.2 µM and 52.1 µg/mL
CCRF-CEM leukemia
  TGI: 59.4 µM
KM12 colon
  GI50: 53 µg/mL
  TGI: 61.5 µM and 150 µg/mL
RPMI-8226 leukemia
  GI50: 150 µg/mL
  TGI: 45.2 µM and 150 µg/mL
MALME-3M melanoma
  GI50: 28.1 µg/mL
  TGI: 33 µM and 51.3 µg/mL
A498 renal
  GI50: 25.8 µg/mL
  TGI: 33.2 µM and 46.5 µg/mL
EKVX NSCLC
  TGI: 30.9 µM
